Source: article PMC12339163, “Combining Plant Bioactives With Antibiotics for Enhanced Antibiofilm Activity Against Uropathogenic Staphylococcus spp. and Cytotoxicity Evaluation” (Advances in Pharmacological and Pharmaceutical Sciences, 2025)
≈ marks a conversion by molar mass, not a printed value. Read-outs that look alike come from different tables or passages of the source.

Experiments:
S. aureus = test: MIC and MBC, broth microdilution; assay type: cell-based, Staphylococcus aureus; settings: Staphylococcus aureus, geometric mean, S. aureus (n = 3); for MBC: antibiotics, read-out: MBC; for MIC: read-out: MIC
Procedure: (§1) Seven clinical isolates of Staphylococcus spp. including 2 S. aureus, 3 S. saprophyticus, and 2 S. epidermidis were used. They were isolated from urine samples in our previous study. Two reference strains (S. aureus ATCC1026 and S. epidermidis ATCC35984) obtained from the American Type Culture Collection were also included. They were kept in the mixture of glycerol and Mueller Hinton Broth (MHB) (1:1) at −20°C, and the activation was achieved using the streak technique on Mueller Hinton agar (MHA) medium.
(§2) The MICs of ATBs and NPs were determined by the broth microdilution method as previously described. NPs and ATBs were, respectively, prepared at 4096 µg/mL and 512 µg/mL and serially diluted twofold with MHB in a 96-well microplate at a volume of 100 µL. Then, the wells were filled with 100 µL of inoculum (1.5 × 10^6 CFU/mL) to give final concentrations ranging from 1024 µg/mL to 0.5 µg/mL and 128 µg/mL to 0.062 µg/mL of NPs and ATBs, respectively. The microplates were incubated for 24 h at 37°C. Wells containing only bacterial inoculum were used as the negative control. After incubation, a volume of 40 µL of INT solution (0.2 mg/mL) was added to each well, and the microplate was incubated at 37°C for 30 min. Viable bacteria cells change the yellow dye of INT to a pink color. The MIC was considered as the lowest concentration of the sample at which there was no change in the coloration of the medium, corresponding to the complete inhibition of microbial growth.
(§3) All tests were performed in triplicate.

S. saprophyticus = test: MIC and MBC, broth microdilution; assay type: cell-based, Staphylococcus saprophyticus; settings: Staphylococcus saprophyticus, geometric mean, S. saprophyticus (n = 3); for MBC: antibiotics, read-out: MBC; for MIC: read-out: MIC
Procedure: as §1, §2, §3

S. saprophyticus biofilm = test: Biofilm inhibition assay (MBIC, MTT); assay type: cell-based, Staphylococcus saprophyticus; settings: Staphylococcus saprophyticus, 24 h; geometric mean, S. saprophyticus (n = 3)
Procedure: The biofilm formation inhibitory activity of NPs and ATBs was carried out according to the method previously described. A total of 100 µL of bacterial inoculum (1.5 × 10^6 CFU/mL) was used, and 100 µL of each sample was added to the microplate to achieve final concentrations ranging from 0.25 µg/mL to 128 µg/mL for ATBs and from 8 µg/mL to 1024 µg/mL for NPs. Then, the microplate was incubated at 37°C for 24 h. After incubation, the plates were gently emptied and washed three times with a phosphate buffer solution at pH 7.2. Then, the MTT solution (0.5 mg/mL) prepared in PBS was introduced into each well, and the microplate was further incubated at 37°C for 24 h. Untreated wells containing bacterial suspension and MHB supplemented with 1% glucose were considered positive controls, and wells containing only MHB+1% glucose without bacteria were used as blanks. After incubation, the MTT solution was aspirated, then 150 µL of DMSO was introduced to dissolve the formazan crystal formed by viable bacteria, and the optical density (OD) was measured at 570 nm using a microplate reader (VERSA-max). The percentage of biofilm inhibition was calculated using the formula below, and the minimal biofilm inhibitory concentration (MBIC) was recorded as the lowest concentration of NPs or ATBs that inhibited 100% of biofilm:(1) % biofilm inhibition=ODcontrol−ODblank−ODtest−ODblank/ODcontrol−ODblank×100.

S. epidermidis biofilm = test: Biofilm eradication assay (MBEC, MTT); assay type: cell-based, Staphylococcus epidermidis; settings: Staphylococcus epidermidis, 24 h; geometric mean, S. epidermidis (n = 3)
Procedure: The determination of the biofilm eradication potential of NPs and ATBs was performed as previously described. Briefly, 100 µL of bacterial inoculum (1.5 × 10^6 CFU/mL) and 100 µL of MHB + 1% glucose were introduced into the microplate, incubated at 37°C for 24 h, and the microplate was gently emptied and washed three times with PBS. Then, 200 µL of ATBs or NPs at respective concentrations ranging from 8 to 1024 µg/mL and from 16 to 2048 µg/mL were incubated at 37°C for 24 h. Once incubation was completed, the microplate was processed as described above, and the percentage of biofilm eradication was calculated using the formula below. The minimal biofilm eradicating concentration (MBEC) was recorded as the lowest concentration of the test sample that reduces 100% of biofilm:(2) % biofilm eradication=ODcontrol−ODblank−ODtest−ODblank/ODcontrol−ODblank×100.

[1] = tested on: planktonic cells of Staphylococcus aureus; test: Checkerboard combination assay, planktonic cells; assay type: cell-based; settings: Staphylococcus aureus, S. aureus, mean, read-out: MIC alone, ATB
Procedure: The checkerboard assay, as previously described, was used for the determination of the fractional inhibitory concentration index (FICI). Briefly, 50 µL of MHB was distributed into each well of a 96-well microplate. ATBs were serially diluted along the abscissa, and NPs were serially diluted along the ordinate. Then, 100 µL of bacterial inoculum (1.5 × 10^6 CFU/mL) was added to each well and incubated at 37°C for 24 h. The final concentration ranged from 0.125 to 128 µg/mL for ATBs and 4–512 µg/mL for NPs. After incubation, a volume of 40 µL of INT solution (0.2 mg/mL) was added to each well, and the microplate was incubated at 37°C for 30 min. The wells containing bacterial inoculum and MHB were used as a positive control, while wells containing only MHB + 1% glucose were used as a negative control and used as a blank. Viable bacteria cells change the yellow dye of INT to a pink color. The MICs were considered to be the lowest NP concentrations that prevented the color change medium. Subsequently, the FICI was calculated according to the formula FICI = (MIC of the ATBs in combination/MIC of the ATBs alone) + (MIC of a natural substance in combination/MIC of the natural substance alone). FICI values were interpreted as follows: synergy when FICI ≤ 0.5; additive when 0.5 < FICI ≤ 1; indifference when 1 < FICI ≤ 4; and antagonism when FICI > 4.

[2] = tested on: Staphylococcus epidermidis biofilm; test: Checkerboard combination assay, biofilm eradication; assay type: cell-based
Procedure: The effect of the combination of ATBs with NPs on the preformed biofilm was evaluated by determining the FICI, as described above for biofilm formation, with slight modifications. After biofilm formation for 24 h, the plate was gently emptied and washed three times with PBS. Then, 50 µL of ATBs and 50 µL of NPs were introduced to the plate. The final concentration ranges from 0.0625 to 128 µg/mL and from 4 to 512 µg/mL for ATBs and NPs, respectively, and is incubated at 37°C for 24 h. After incubation, the medium was gently removed, and the plate was washed three times with PBS. At the end of the incubation time, the MTT reduction assay was performed, and the MBEC was determined. To assess the effect of the combination, the FICI was calculated and interpreted as described above.

[3] = S. epidermidis biofilm eradication, antibiotic alone, mean MBEC

MIC (S. aureus) [µg/mL]	MIC (S. saprophyticus) [µg/mL]	MIC ([1]; 24 h) [µg/mL]	MIC [1] [µg/mL]	SMILES	MBC (S. aureus) [µg/mL]	MBC (S. saprophyticus) [µg/mL]	minimal effective concentration (S. saprophyticus biofilm) [µg/mL]	minimal effective concentration (S. epidermidis biofilm) [µg/mL]	MBEC Alone ATB [2, 3] [µg/mL]	MBEC Alone ATB ([2]; S. epidermidis, biofilm eradication, mean) [µg/mL]
42.7 (≈ 93.9 µM)	64.7 (≈ 142 µM)	42.7	42.7	Cc1nnc(SCC2=C(C(=O)O)N3C(=O)[C@@H](NC(=O)Cn4cnnn4)[C@H]3SC2)s1 [Cefazolin, cefazolin]	> 128	> 128	8.53	10.7	10.66	42.66
108 (≈ 147 µM)	4.66 (≈ 6.35 µM)	108	108	CC[C@H]1OC(=O)[C@H](C)[C@@H](O[C@H]2C[C@@](C)(OC)[C@@H](O)[C@H](C)O2)[C@H](C)[C@@H](O[C@@H]2O[C@H](C)C[C@H](N(C)C)[C@H]2O)[C@](C)(O)C[C@@H](C)C(=O)[C@H](C)[C@@H](O)[C@]1(C)O [Erythromycin, erythromycin]	> 128	> 128	27.3	18.7	18.66	
